Experimental data taken from patent publication US20210244712A1, “METHODS FOR TREATING PATIENTS WITH CANCER HAVING DEFECTS IN CYCLIN D REGULATION” (NysnoBio Ireland DAC, priority 2018, published 2021).

How the values were obtained:
[1] = test system: cyclin D1; test: Western blot of Cyclin D1, Example 6B; type: cell-based; settings: 250 nM, 24 h, compared to control (DMSO)
Procedure: Cells were plated at a density of 3×10^5 cells/well for 24 hrs. Representative compounds or DMSO alone was then added to the wells for 24 h at 250 nM (note: Compound F was administered at a concentration of 2 μM). Cells were trypsinised, pelleted, washed ×3 in PBS, and lysed using a 2% SDS lysis solution (Sigma—05030).
Western blot analysis was then carried out to look at Cyclin D1 (Abeam—ab134175), PRK8 (Sigma—P6248), Rb (Abeam—[…]) and GAPDH (Sigma—G9545) levels.

[2] = test system: cyclin D1; test: Western blot of Cyclin D1 in Mino cells, Example 6C; type: cell-based; settings: compared to control (DMSO)
Procedure: Mino cells have a chromosomal translocation of the Cyclin D gene that increases expression of cyclin D1. Western blot analysis was then carried out to look at Cyclin D1 (Abeam—ab134175) and GAPDH (Sigma—G9545) levels after treatment with Compounds F, S3, 42, and 146.

[3] = test system: HCT-116 xenograft; test: Subcutaneous HCT-116 xenograft model, tumor volume; type: in vivo, nude mice; settings: Groups 2-6 of Table 8 (Compound 42 1 and 5, Q3 5 and 15, F 25 mg/kg); IP daily for 20 days; 28 days; vs control
Procedure: The efficacy of Compound 42, Compound F, and Compound Q3 were evaluated in the treatment of subcutaneous HCT-116 xenograft model in nude mice.
Cell Culture: HCT-116 tumor cell lines were maintained in vitro as a monolayer culture in DMEM medium supplemented with 10% fetal bovine serum at 37° C. in an atmosphere of 5% CO2 in air. The tumor cells were routinely subcultured twice weekly by trypsin-EDTA treatment (0.05% Trypsin-EDTA) and 1:4 split: The cells in an exponential growth phase were harvested and counted for tumor inoculation.
Tumor Inoculation: Each, mouse was inoculated subcutaneously at the flank region with HCT-1.16 cells (1.0×106) in 0.1 ml of 1×PBS mixed with Matrigel (1:1) for tumor development. The day Xenotransplantation was performed is denoted as day 0.
Thirty (30) animals with approx 100-150 mm^3 tumors were selected for HCT-116 follow up experiment and randomly placed Into Groups 1, 2, […], 4, 5, and 6 as shown in Table 8.
Group Assignment: Before grouping and treatment, all animals were weighed and fee tumor volumes were confirmed (100-150 mm^3) using electronic caliper. Since the tumor volume can affect fee effectiveness of any given treatment mice into groups using randomized block design as following: First the experimental animals were divided into homogeneous blocks based on their tumor volume. Secondly, within each block, randomization of experimental animals to different groups By using randomized block design to assign experimental animals, we ensure that each animal has the same probability of being assigned to any given treatment groups and therefore systematic error is minimized.
(§1) Treatments were initiated when turner volume reached 100-150 mm^3. Treatments started on Day 5. Test compounds were administered intraperitoneally (II′) in 10 mg/mL solution comprising 10% N,N-dimethyl acetamide, 15% macrogol 15 hydroxy stearate, polyethylene glycol-15-hydroxystearate, and 75% aqueous hydroxypropyl-beta-cyclodextrin.
(§2) Observation and data collection: After tumor cells inoculation, the animals were checked daily for morbidity and mortality. At the time of routine monitoring, the animals were checked for any adverse effects of tumor growth and treatments on normal behavior such as mobility, visual estimation of food and water consumption, body weight gain/loss, eye/hair matting and any other abnormal effects, Death and observed clinical signs were recorded, per […] IACUC. Tumor volumes were measured every 3-4 days in two dimensions using an electronic caliper, sad the volume data are expressed in, mm3 using the formula: V=0.5 a×b^2 where a and b are fee long and short diameters of the tumor, respectively. Dosing and tumor volume measurement procedures were conducted in a Laminar Flow Cabinet according to Altogen Labs IACUC regulations.
Statistics: Summary statistics, the mean and the standard error of the mean (SEM), are provided for the tumor volume of each group at each time point. Statistical analysis of difference in tumor volume among the groups and the analysis of drug interaction were conducted on the data obtained after the final dose.

[4] = HCT-116 xenograft model, body weight and adverse events; type: in vivo; settings: Groups 2-6 of Table 8; IP daily for 20 days
Procedure: as §1, §2
Body weight loss daring fee study: Sacrifice fee mouse when one measurement of body weight loss (BWL)>20% (only for control animals). Animal research associated wife this study was conducted under Altogen Labs IACUC regulatory space. Altogen Labs IACUC guidelines were followed in case of BWL and any other conditions.

[5] = test system: ubiquitinated proteins; test: Mechanistic study: Ub (FK-2) western blot; type: cell-based; settings: ES-2; epoxomicin 60 nM; 18 hours
Procedure: In order to establish that the decrease in Cyclin D seen after Compound 42 treatment is due to proteasomal degradation, ES-2, ovarian cancer cell line was treated with Compound 42 (250 nM) in the presence or absence of epoxomicin, a specific inhibitor of the proteasome (60 nM) for 18 hours. Following the treatment, western blotting for Cyclin D (FIG. 10A), Ub (FK-2) (FIG. 10B), and GAPDH control (bottom blot, below FIGS. 10A and 10B) was performed. Epoxomicin is a specific inhibitor of the proteasome.

[6] = test system: HCT-116; test: Senescence quantification (SA-βGal), Example 6A; type: cell-based; settings: Compound 42 250 nM, Palbociclib 1 μM
Procedure: Day 1: 96 well plate was seeded with 4000 cells/well and incubated for 24 hours at 37° C. […]
Day 6: Senescence cells histochemical Staining Kit (Sigma) was used. The growth medium form the cells were aspirated then washed twice with fresh […]. […] 100 μL filtered Fixation Buffer was added per well and the plate was incubated for 6-7 minutes at room temperature. Then, the cells were rinsed 3 times with PBS. 50 μL of the Staining Mixture was added per well and incubated at 37° C. overnight without CO2 (staining is pH dependent). After staining, the Staining Mixture was removed, PBS and Hoechst dye (1 μg/mL) were added. Ten images were taken with Epifluorescence Microscope using the blue filter and 10 images were taken in the brightfield. The images were used to count the total cell number—the positive blue cells were counted in the bright field. The percentage of cells expressing β-galactosidase was calculated.
Method 1: Mammalian β-Galactosidase Assay Kit (Thermo Scientific) was used. […] The cells were washed once with PBS. 100 μL of the β-Galactosidase Assay Reagent was added to each well and the plate was covered and incubated for 30 minutes at 37° C. without CO2. The absorbance was measured at 405 nm. […]
Method 2: Assay of a portion of the lysate. […] 25 μL of lysate was removed and use it for Protein Quantification (BCA). […]
Senescence was quantified according to Example 4. […]

Row | Structure (SMILES) | Cyclin D1 expression ([1]; HCT-116) | Cyclin D1 expression ([1]; TOV-112) | cyclin D expression [2] | further results
1 | Cc1ccccc1C(=O)Nc1nc(-c2ncccc2C)nn1-c1cccc(F)c1 [Compound 146] | reduction of Cyclin D1 expression | reduction of Cyclin D1 expression | appreciably reduce Cyclin D expression | –
2 | Cc1ccccc1C(=O)Nc1nc(NC(=O)c2ccccc2C)n(-c2ccc(Cl)cc2)n1 [Compound Q3] | – | – | – | tumor growth (tumor volume) [3]: reduce the tumor growth; weight loss or adverse events [4]: No weight loss or any adverse events
3 | Cc1ccccc1C(=O)Nc1nc(-c2ncccc2C)nn1-c1ccccc1 [Compound S3] | reduction of Cyclin D1 expression | reduction of Cyclin D1 expression | appreciably reduce Cyclin D expression | –
4 | CC[C@H](C)[C@H](NC(=O)[C@H]([C@@H](C)CC)N(C)C(C)=O)C(=O)N[C@H](C(=O)N[C@@H](CC(C)C)C(=O)[C@@]1(C)CO1)[C@@H](C)O [epoxomicin] | – | – | – | ubiquitinated proteins (FK-2 antibody) [5]: overall increase of ubiquitinated proteins
5 | CC(=O)c1c(C)c2cnc(Nc3ccc(N4CCNCC4)cn3)nc2n(C2CCCC2)c1=O [palbociclib, reference compound] | – | – | – | apoptosis or other cell death [6]: No apoptosis or other cell death was observed
